In patent publication EP0961591B1, “METHOD TO ENHANCE TISSUE AC[…] RADIOLABELED COMPOUNDS” (BOARD OF SUPERVISORS OF LOUISIANA STATE UNIVERSITY AND …, priority 1997, dated 1999):
Bridges are numbered along the chain shown (N, C = ends). Where no end group is shown, it is not given here. [ ]: non-standard residue; d: D form.

Legend:
[1] = tested on: Human placental-derived vascular endothelial cells; assay: Binding and internalization in angiogenic vascular endothelial cells; settings: acid wash
Text: Human placental-derived vascular endothelial cells were used to assay for cell binding of the somatostatin analog, ^125I-JIC-2D. The radioligand, a somatostatin analog, ^125I-JIC-2D, was made by solid phase peptide synthesis as described in U.S. Patent No. 5,597,894. This peptide has an amino acid sequence of the following: D-Lys-D-Tyr-D-Lys-D-Tyr-D-Lys-c[Cys-Phe-D-Trp-Lys-Thr-Cys]-Thr-NH2. The cells were obtained by growing discs of human placental veins in fibrinclots for 14 days. […] These discs and their angiogenic sprouts are harvested mechanically and dissociated by vortexing. The vein discs are then discarded and the endothelial cells pooled. Cells were harvested, counted with a hemocytometer, and resuspended in binding buffer (Minimum Essential Medium (MEM), 10 mM Hepes, 0.01 % BSA). A standard assay used 500,000 cells in 1 ml of binding buffer. […] At the termination of the experiment, the incubation medium was removed, the cells were rinsed twice with Hanks balanced salt solution (HBSS), and the radioactivity in the cells determined using a gamma counter. This level of radioactivity represents total binding, which includes both membrane-bound and internalized fractions. Specific binding was determined by calculating the difference in the levels of measured radioactivity without the unlabeled competitor minus the radioactivity with the unlabeled competitor. […]

IMR-32 cells = assay: Nuclear translocation (Percoll density gradient fractionation); assay type: cell-based, human
Protocol: The cells were washed twice in media at 4°C and resuspended in cold isotonic sucrose. The labeled cells were passed through a ball-bearing homogenizer three times to disrupt cell membranes while leaving approximately 95% of the cell nuclei intact, according to the method of Balch et al., Arch. Biochem. Biophys., vol. 240, p. […] The cell homogenate was mixed with Percoll to give a final concentration of […] Percoll and spun at 20,400 rpm in a Beckman 40.2 rotor for 45 min to generate a density gradient. Density marker beads (Pharmacia) were used to indicate density levels in the tube. The contents of the tube were fractionated in an ISCO Density Gradient Fractionator. The resulting tubes were assayed for content of radiolabeled somatostatin or analogs, DNA to indicate nuclei, protein, the plasma membrane marker 5'-nucleotidase, and the lysosome marker N-acetylglucosaminidase. The usual assumption was made that the radioactivity measured in fractions rich in a certain cell component was in fact associated with that component; e.g., the radioactivity measured in a fraction rich in plasma membrane was due to association of the radiolabeled compound with the plasma membrane.
The density distribution is represented by the triangles in the figures. Nuclear fractions were found in the density gradient represented by Tubes 12-15, and membrane fractions by Tubes 0-6. […] Radiodecaying nuclei will then ionize DNA, resulting in cellular damage.

| Substance | binding and internalization [1] | cellular distribution (membrane vs nuclear fractions) (IMR-32 cells; 1 hr) | cellular distribution (membrane vs nuclear fractions) (IMR-32 cells; 4 hr) | cellular distribution (membrane vs nuclear fractions) (IMR-32 cells; 24 hr) |
| --- | --- | --- | --- | --- |
| [dK][dY][dK][dY][dK]CF[dW]KTCT-NH2 (disulfide 6-11) [^125I-JIC-2D] | the vast majority of the radioligand was internalized into the cell |  |  |  |
| ^125I-somatostatin: radiolabeled native somatostatin (AGCKNFFWKTFTSC; disulfide 3-14 (inferred); ends not checked; also: 125I label, position not given here; UniProt P61278 103-116, looked up) |  | both membrane binding and small amounts of nuclear binding | the plasma membrane binding appeared to have peaked and the nuclear fraction was dissipating | essentially no plasma membrane or nuclear binding was seen |
